According to patent publication US20240208965A1, “HETEROARYL ALKYLENE SUBSTITUTED 2-OXOQUINAZOLINE DERIVATIVES AS METHIONINE ADENOSYLTRANSFERASE 2A INHIBITORS” (IDEAYA BIOSCIENCES, INC., priority 2020, published 2024):

Target: T1, Human MAT2A (Homo sapiens, UniProt P31153)
T1 construct: Human MAT2A: Cepter, amino acids 1-395 Clone ID 334, lot 00023-148; purchased Cepter clone ID 334, lot 00023-148
Test: Phosphate Sensor Fluorescence Assay (Biologic Example A)
Format: biochemical
Settings: MAT2A inhibition, Biological Example A procedure (Compounds 1.001-1.028); 500 uM L-methionine, 500 uM ATP
Protocol: The ability of the compound of present disclosure to inhibit MAT2A enzyme was determined using a Phosphate Sensor Fluorescence Assay described below.
Biologic Example A. Phosphate Sensor Fluorescence Assay
MAT2A enzyme is incubated with a test compound in DMSO or DMSO and its substrates (L-methionine and ATP) in a microtiter plate. The enzymatic reaction is stopped by the addition of Working Phosphate Sensor Mixture. The plate is analyzed for fluorescence at 450 nm. The high control (DMSO with enzyme and its substrates) gives high fluorescence which represents no inhibition of enzymatic activity while the low control (DMSO with MAT2A substrates and no enzyme) gives low fluorescence which represents full inhibition of enzymatic activity.
• Human MAT2A: Cepter, amino acids 1-395 • Tris, pH 7.5: Invitrogen cat #15567-027 • KCl: Ambion cat #AM9640G • MgCl2: Ambion cat #AM9530G • Brij-35: Sigma cat B4184-10ML • DTT: Goldbio cat #DTT100 • BGG: Sigma cat #G5009-25G • PNP: Novus Biologicals cat #NBP1-50872 • 7-MEG: Cayman Chemical cat #15988 • L-Methionine: Alfa Aesar cat #J61904 • ATP: Alfa Aesar cat #J60336 • Phosphate Sensor: Thermo Fisher cat #PV4407 • EDTA: Life Tech cat #15575-038 • Assay plate: 384-well black polypropylene plate: Thomas Scientific cat #1149Q35
• Assay Buffer: 50 mM Tris, pH 7.5/50 mM KCl/10 mM MgCl2/0.01% Brij-35/1 mM DTT/0.1% BGG/40 nM PNP/6 uM 7-MEG • MAT2A: 10 nM for Cepter clone ID 329, lot 00023-123 before the addition of Working Phosphate Sensor Mixture • 5 nM for Cepter clone ID 334, lot 00023-148 before the addition of Working Phosphate Sensor Mixture • L-methionine: 500 uM before the addition of Working Phosphate Sensor Mixture • ATP: 500 uM before the addition of Working Phosphate Sensor Mixture
For the assay, a mixture of 1 mM L-methionine/1 mM ATP (2× final pre-stopped concentration) in assay buffer; MAT2A (2× final pre-stopped concentration) in Assay Buffer and Working Phosphate Sensor Mixture (1.5 uM Phosphate Sensor/30 mM EDTA in Assay Buffer, which is 3× final concentrations) were prepared. Test compounds or DMSO were added to the appropriate well suing D300e digital dispenser. 5 μl/well of Assay Buffer was added to the wells corresponding to the negative control and 5 μl/well of MAT2A was added to all the wells except for those corresponding to the negative control. After incubating the plate at room temperature for 15 minutes, 5 μl/well of the 1 mM L-methionine/1 mM ATP mixture was added to all wells. The plate was centrifuged at 1000 rpm for 1 minute and then incubated at room temperature for 1 hour. 5 μl of the Working Phosphate Sensor Mixture was added to all wells and the plate was centrifuged at 1000 rpm for 1 minute. The plate was read for fluorescence at 450 nm after exciting at 430 nm.
Percent inhibition was calculated in Chemical and Biological Information System (CBIS), (ChemInnovation Software Inc.). Curves were fitted by CBIS as % inhibition vs. log [compound concentration] using a 4-parameter inhibition model.
Fit=(A+((B−A)/(1+((C/x)^D))))
Compounds 1.001-1.028 were tested using the procedure described in Bioogical Example A, described above. Compounds 1.029-1.070 were tested using the procedure described in Biological Example B, described above.

T1 sequence (P31153 whole entry, the tested form may be a part): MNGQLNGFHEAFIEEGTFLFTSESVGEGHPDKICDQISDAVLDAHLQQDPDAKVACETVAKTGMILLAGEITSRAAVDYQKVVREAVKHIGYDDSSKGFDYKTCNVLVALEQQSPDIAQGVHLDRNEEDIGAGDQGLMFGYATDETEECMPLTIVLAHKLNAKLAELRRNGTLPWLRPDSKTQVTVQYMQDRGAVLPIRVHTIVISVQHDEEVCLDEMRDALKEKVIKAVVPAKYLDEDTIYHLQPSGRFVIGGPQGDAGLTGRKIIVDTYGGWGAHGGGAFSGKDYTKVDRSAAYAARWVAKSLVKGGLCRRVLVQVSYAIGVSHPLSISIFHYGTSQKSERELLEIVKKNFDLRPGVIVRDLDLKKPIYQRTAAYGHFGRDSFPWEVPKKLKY

| IC50 [µM] | Compound |
| --- | --- |
| 0.01 to 0.2 | CNc1nc(=O)n(Cc2c[nH]cn2)c2cc(C(F)(F)F)ccc12 [1.003, 1-((1H-imidazol-4-yl)methyl)-4-(methylamino)-7-(trifluoromethyl)quinazolin-2(1H)-one] |
| 0.01 to 0.2 | CO[C@@H]1CCN(c2nc(=O)n([C@H](C)c3c[nH]cn3)c3cc(C(F)(F)F)ccc23)C1 (single isomer, unassigned) [1.025] |
| 0.01 to 0.2 | CC(c1c[nH]cn1)n1c(=O)nc(N2CC[C@H](CO)C2)c2ccc(C(F)(F)F)cc21 (stereo partly drawn) [1.011, 1-(1-(1H-imidazol-4-yl)ethyl)-4-((S)-3-(hydroxymethyl)pyrrolidin-1-yl)-7-(trifluoromethyl)quinazolin-2(1H)-one] |
| 0.01 to 0.2 | CNc1nc(=O)n(C(C)c2c[nH]cn2)c2cc(C(F)(F)F)ccc12 (racemic) [1.007, 1-(1-(1H-imidazol-4-yl)ethyl)-4-(methylamino)-7-(trifluoromethyl)quinazolin-2(1H)-one] |
